The series can be described thus: log P by HPLC on reversed-phase columns (C 18), EEC Directive 79/831 Annex V.A8. The format is physicochemical. Particulars: for log p: [a] HPLC.
Where [1] appears, read: reversed-phase C18 HPLC column, pH 2.3, pH 2.3, given in synthesis examples, read-out: log P (pH2.3).
Setting [2] is: acid region pH 2.3, 0.1% aqueous phosphoric acid and acetonitrile.

Each structure is given as a SMILES string. Where two headings read alike, the source gives them in different places.

`O=c1oc(C2(c3ccc(Cl)cc3)CC2)ns1`: the chromatographic logP (pH 2.3, given in synthesis examples, read-out: log P (pH2.3)) came to 3.59.

As to `Cc1ccc(S(=O)(=O)c2nc(C3(c4ccc(Cl)cc4)CC3)ns2)cc1` [3-[1-(4-Chlorophenyl)cyclopropyl]-5-[(4-methylphenyl)sulphonyl]-1,2,4-thiadiazole], the chromatographic logP under setting [1] is 4.97. Same read-out and setting: to `Cc1cc(Oc2nc(C3(c4ccc(Cl)cc4)CC3)ns2)c(C)cc1N` [4-({3-[1-(4-Chlorophenyl)cyclopropyl]-1,2,4-thiadiazol-5-yl}oxy)-2,5-dimethylaniline] belongs 4.44; to `Cc1cc(Oc2nc(Cc3cccc(Cl)c3)ns2)c(C)cc1N` [4-{[3-(3-Chlorobenzyl)-1,2,4-thiadiazol-5-yl]oxy}-2,5-dimethylaniline], 3.68. `Cc1cc(Oc2nc(C(C)c3ccc(Cl)cc3)ns2)c(Cl)cc1N=CN1CCCCC1` (stereo not drawn) [Example 21, 5-chloro-4-({3-[1-(4-chlorophenyl)ethyl]-1,2,4-thiadiazol-5-yl}oxy)-2-methyl-N-(piperidin-1-ylmethylidene)aniline]: the chromatographic logP (reversed-phase C18 HPLC column, pH 2.3, [a] HPLC, acid region pH 2.3, 0.1% aqueous phosphoric acid and acetonitrile, read-out: log p) is 2.67. For `Cc1cc(Oc2nc(Cc3ccc(Cl)cc3)ns2)c(C)cc1N=CN(C)CC(F)F` [Example 53], the log p under setting [2] is 2.18^[a].

`CCN(C)C=Nc1cc(C)c(Oc2nc(Cc3ccc(F)c(F)c3)ns2)cc1C` [Example 54]: under setting [2], the log p is 1.86^[a]. On the same count and under the same terms, to `Cc1cc(Oc2nc(Cc3ccc(F)cc3F)ns2)c(C)cc1N=CN1CCCCC1` [Example 55] belongs 2.02^[a]; to `CCN(C)C=Nc1cc(C)c(Oc2nc(Cc3ccc(OC(F)(F)F)cc3)ns2)cc1C` [Example 56], 2.21^[a]; to `Cc1cc(Oc2nc(Cc3ccc(F)cc3)ns2)c(C)cc1N=CN1CCCCC1` [Example 57], 2.05^[a].

In the case of `Cc1cc(Oc2nc(Cc3ccc(OC(F)(F)F)cc3)ns2)c(C)cc1N=CN1CCCCC1` [Example 58], the log p under setting [2] was 2.71^[a]. Regarding `Cc1cc(Oc2nc(Cc3cccc(Br)c3)ns2)c(C)cc1N=CN1CCCCC1` [Example 59], the log p under setting [2] is 2.23^[a]. For the molecule `CCN(C)C=Nc1cc(C)c(Oc2nc(Cc3ccc(F)cc3)ns2)cc1C` [Example 60], the log p under setting [2] was 1.74^[a]. Consider `CCN(C)C=Nc1cc(C)c(Oc2nc(Cc3ccccc3Cl)ns2)cc1C` [Example 61], for which the log p under setting [2] was 1.97^[a]. In the case of `Cc1cc(Oc2nc(Cc3ccccc3Cl)ns2)c(C)cc1N=CN1CCCCC1` [Example 62], the log p under setting [2] is 2.43^[a].

As to `Cc1cc(Oc2nc(Cc3ccc(F)c(F)c3)ns2)c(C)cc1N=CN1CCCCC1` [Example 63], the log p under setting [2] was 2.39^[a]. `CCN(C)C=Nc1cc(C)c(Oc2nc(Cc3ccc([N+](=O)[O-])cc3)ns2)cc1C` [Example 64]: the log p under setting [2] was 2.11^[a]. With `CCN(C)C=Nc1cc(C)c(Oc2nc(Cc3cccc(Br)c3)ns2)cc1C` [Example 65], the log p under setting [2] was 2.38^[a]. Consider `CCN(C)C=Nc1cc(C)c(Oc2nc(Cc3cc(F)ccc3F)ns2)cc1C` [Example 67], for which the log p under setting [2] is 1.66^[a]. For the molecule `Cc1ccccc1Cc1nsc(Oc2cc(C)c(N=CN3CCCCC3)cc2C)n1` [Example 68], under setting [2], the log p was 2.06^[a].

`CCN(C)C=Nc1cc(C)c(Oc2nc(Cc3ccc(C#N)cc3)ns2)cc1C` [Example 69]: the log p under setting [2] is 1.63^[a]. In the case of `Cc1cc(Oc2nc(Cc3ccc(-c4ccccc4)cc3)ns2)c(C)cc1N=CN1CCCCC1` [Example 70], the log p under setting [2] was 2.45^[a].

For `CCN(C)C=Nc1cc(C)c(Oc2nc(Cc3ccc(C(F)(F)F)cc3)ns2)cc1C` [Example 71], the log p under setting [2] was 2.29^[a]. Regarding `CCN(C)C=Nc1cc(C)c(Oc2nc(Cc3ccccc3C)ns2)cc1C` [Example 72], under setting [2], the log p was 1.89^[a]. On the same count and under the same terms, in the case of `CCN(C)C=Nc1cc(C)c(Oc2nc(Cc3ccc(-c4ccccc4)cc3)ns2)cc1C` [Example 73] it was 2.8^[a]; in that of `CCN(C)C=Nc1cc(C)c(Oc2nc(Cc3c(F)cccc3Cl)ns2)cc1C` [Example 74], 2.33^[a]. Consider `CCN(C)C=Nc1cc(C)c(Oc2nc(Cc3ccc(OC)cc3)ns2)cc1C` [Example 75], for which the log p under setting [2] was 2.98^[a].

Values taken from patent US8383139B2 (Bayer CropScience AG, priority 2008, dated 2013).
